Assay results taken from patent US7875625B2, “Cyclohepta[b]pyridine-3-carbonylguanidine derivative and pharmaceutical product containing same” (Toa Eiyo Ltd., priority 2005, dated 2011).
Counter-ions that a name gives are not always drawn.

How the values were obtained:
[1] = system: reperfusion-induced arrhythmia upon myocardial ischemia; assay: Reperfusion-induced arrhythmia inhibitory action test; assay type: in vivo, rat; conditions: male SD rats, 3.62 mmol/L, 1 mL/kg intravenous, within 10 minutes after reperfusion
Method: Subsequently, in evaluation of the in vivo NHE inhibitory action, the effect of the test compound on reperfusion-induced arrhythmia upon myocardial ischemia was evaluated according to the method of Aihara et al. [European Journal of Pharmacology, Vol. 404, p. 221-229 (2000)]. Under anesthesia using pentobarbital sodium (60 mg/kg, intraperitoneal administration), cannulae were inserted into trachea, femoral vein and carotid artery of male SD rats ([…]) for artificial ventilation, drug administration and blood pressure measurement, respectively. The blood pressure was measured using a strain pressure amplifier via a pressure transducer, while the heart rate was measured from the blood pressure pulse wave using a cardiotachometer. Furthermore, an electrocardiogram (lead II) was measured from the electrodes attached to each four limbs. Next, under artificial ventilation, left thoracotomy was performed and a snare (5-0 nylon) was loosely placed around a blood vessel which was about 3 mm apart from the origin of the left coronary artery. Thereafter, it was confirmed that arrhythmia was not occurred for 10 minutes, and then the snare was fastened to induce local myocardial ischemia. Furthermore, after 4 minutes of myocardial ischemia, the compound was intravenously administered for 1 minute, and after 5 minutes of myocardial ischemia, the snare was loosened, then the arrhythmia occurred after reperfusion was recorded and analyzed with an arrhythmia analyzer (Softron Co., Ltd.), thereby the anti-arrhythmic action of the compound was evaluated. […] The control group was administered with physiological saline.
With regard to the ventricular fibrillation (Vf) which occurred within 10 minutes after reperfusion (in the cases of halfway death, up to the time point where cardiac arrest was confirmed), arrhythmia analysis was performed according to the Guidelines for Lambeth Convention [Cardiovascular research, Vol. 22, p. 447-455, 1988], and evaluation was made in terms of the frequency of Vf occurrence, cumulative duration time of Vf, and the mortality.
The frequency of Vf occurrence, cumulative duration of Vf, and the mortality for the respective test compounds are presented in Table 2.

male mice = assay: Toxicity test with 2-days repeated intraperitoneal administration in mouse; assay type: in vivo; conditions: equivalent of 300 mg/kg control compound intraperitoneally once a day for 2 days
Method: For three male mice in each group, 300 mg/kg of the Control Compound (an amount calculated excluding salts), or an equivalent amount of the Inventive Compound 2, 4, 6, 7 or 12 were intraperitoneally administered once a day for 2 days, and a histopathological tests were performed. The Control Compound, and the Inventive Compounds 2, 4 and 6 were suspended in a 0.5% tragacanth gum solution, and the Inventive Compound 7 was suspended in a 10 DMSO-containing 0.5% tragacanth gum solution, while the Inventive Compound 12 was suspended in olive oil. For the histopathological test, in order to make a more thorough examination of central nervous toxicity, the brain was examined after whole body was subjected to perfusion fixation with a 4% formaldehyde in neutral phosphate buffer as a fixing solution using a liquid transporting pump under pentobarbital sodium anesthesia.

[2] = Metabolic stability test in rat (generation of control compound in plasma); assay type: in vivo; conditions: male SD rats; for Plasma concentration of the control compound, after 5 min / Plasma concentration of the control compound, after 15 min / Plasma concentration of the control compound, after 30 min / Plasma concentration of the control compound, after 60 min / Plasma concentration of the control compound, after 120 min: equivalent of 1 mg/kg control compound via tail vein, LC/MS/MS; for Decomposition into the Control Compound in vivo (in words): tail vein, plasma 5-120 min
Description: The compound represented by Formula (1) of the present invention has a structure in which the hydroxyl group on the 9-position of a 9-hydroxymethyl-cyclohepta[b]pyridine-3-carbonylguanidine derivative is converted to a specific substituent. However, if the compound is metabolized in vivo to remove the specific substituent from the compound, there may be generated the original 9-hydroxymethyl-cyclohepta[b]pyridine-3-carbonylguanidine derivative, which has toxic effects on the central nervous system. Thus, the inventive compounds as synthesized in Examples were administered in vivo to study whether the control compound, which was the corresponding 9-hydroxymethyl product, was generated.
Male SD rats (7 weeks old) were administered at 1 mg/kg (an amount calculated excluding salts) of the control compound, an equivalent amount of the Inventive Compound 2, 4, 6, 7 or 12, or Reference Compound 20, through the tail vein. After administration, about 0.2 mL of blood samples were collected after 5, 15, 30, 60 and 120 minutes, and the blood samples were centrifuged at 4° C. at a speed of rotation of 15000 for 15 minutes, thus to separate the supernatant plasma. The concentration of the control compound in the plasma was measured by LC/MS/MS. The measurement results were shown as +++ when the detected plasma concentration of the control compound is 200 ng/mL or greater; ++ for more than 100 ng/mL and less than 200 ng/mL; + for more than 20 ng/mL and less than 100 ng/mL; and − for less than 20 ng/mL or no detection.

Na^+/H^+ exchanger (NHE) = target: T1, Na^+/H^+ exchanger (NHE) (Rattus norvegicus, UniProt P26431); assay: NHE inhibitory effect test (swelling of rat platelets induced by sodium propionate); assay type: cell-based; conditions: for IC50: rat platelet-rich plasma, sodium propionate buffer pH 6.7, 300 μM Amiloride taken as 100% inhibition, Probit method; for NHE inhibitory activity (in words): compared with the control compound
T1 construct: from tissue; host or cells: platelet-rich plasma from Wistar rat blood
Method: The NHE inhibitory activity was measured according to the method by Scholz et al. [British Journal of Pharmacology, Vol. 109, p. 562-568 (1993)], taking the swelling of rat platelets induced by sodium propionate as an index.
Under etherization, blood was collected (8 mL) from the abdominal aorta of a Wistar rat, and 1 mL of a citrate dextrose solution as an anticoagulant was added. The blood sample was immediately centrifuged at 90×g for 10 minutes, and then the collected supernatant was taken as platelet-rich plasma. Subsequently, to 250 μL of a 140 mM sodium propionate buffer solution containing the test compound dissolved in dimethylsulfoxide (pH 6.7, final dimethylsulfoxide concentration 1%), the platelet-rich plasma prepared in the above (number of platelet; 10×10^6/50 μL) was added, and the decrease in the absorbance associated with the swelling of platelets was measured over time with a Hematracer (NKK Corp.).
The rate of decrease in the absorbance at 20 seconds after the addition of the platelet-rich plasma was taken as the NHE activity, and the inhibitory activity of the respective compounds was expressed as a relative activity, while the action obtained upon addition of 300 μM of Amiloride was taken as 100% inhibition.
In addition, the test results were obtained by calculating the concentration at which the inhibitory activity of the test compound becomes 50% (IC50 value), by a Probit method.

Beagle dogs = assay: Toxicity test after 4-days repeated intravenous administration in beagle dogs; assay type: in vivo, dog; conditions: equivalent of 30 mg/kg control compound intravenously once a day for 4 days
Method: With one male and one female dogs in each group, 30 mg/kg of the Control Compound dissolved in physiological saline (an amount calculated excluding salts), or an equivalent amount of the Inventive Compound 2, 4, 6 or 8 was repeatedly administered intravenously once a day for 4 days, and general symptom observation and pharmacological histopathologic examination were performed.

T1 sequence (P26431 whole entry): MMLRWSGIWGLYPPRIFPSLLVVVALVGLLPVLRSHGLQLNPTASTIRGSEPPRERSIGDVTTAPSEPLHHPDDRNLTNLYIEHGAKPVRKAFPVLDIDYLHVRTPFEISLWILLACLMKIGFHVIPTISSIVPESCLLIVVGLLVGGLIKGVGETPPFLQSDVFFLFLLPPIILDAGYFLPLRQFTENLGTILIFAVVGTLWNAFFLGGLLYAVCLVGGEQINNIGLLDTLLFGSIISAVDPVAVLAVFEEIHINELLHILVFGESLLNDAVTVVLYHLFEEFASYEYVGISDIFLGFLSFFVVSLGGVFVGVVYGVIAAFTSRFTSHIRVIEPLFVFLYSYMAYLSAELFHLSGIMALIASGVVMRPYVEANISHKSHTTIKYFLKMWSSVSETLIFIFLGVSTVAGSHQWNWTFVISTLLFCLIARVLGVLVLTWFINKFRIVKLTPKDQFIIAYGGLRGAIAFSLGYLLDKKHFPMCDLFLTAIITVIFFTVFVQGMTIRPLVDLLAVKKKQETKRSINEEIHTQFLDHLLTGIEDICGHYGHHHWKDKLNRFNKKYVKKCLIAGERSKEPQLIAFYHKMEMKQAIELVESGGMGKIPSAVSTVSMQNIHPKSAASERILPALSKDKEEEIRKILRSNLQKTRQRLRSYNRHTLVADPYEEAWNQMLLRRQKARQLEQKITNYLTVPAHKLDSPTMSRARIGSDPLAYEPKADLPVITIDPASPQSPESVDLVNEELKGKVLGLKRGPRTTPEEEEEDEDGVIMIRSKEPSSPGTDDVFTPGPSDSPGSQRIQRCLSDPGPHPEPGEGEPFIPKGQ

Compound | Cumulative duration of Vf [1] | Frequency of Vf occurrence [1] | Mortality [1] | Histopathological finding in the brain (male mice) | Plasma concentration of the control compound, after 5 min [2] | Plasma concentration of the control compound, after 15 min [2] | Plasma concentration of the control compound, after 30 min [2] | Plasma concentration of the control compound, after 60 min [2] | Plasma concentration of the control compound, after 120 min [2] | Decomposition into the Control Compound in vivo (in words) [2] | IC50 (Na^+/H^+ exchanger (NHE)) | General condition (symptom observation) (Beagle dogs) | Pathologic examination of the brain (Beagle dogs) | NHE inhibitory activity (in words) (Na^+/H^+ exchanger (NHE))
Cc1nc2c(cc1C(=O)NC(=N)N)CCCCC2COC(=O)NCCOCCOS(=O)(=O)O (stereo not drawn) [Inventive Compound 7, 2-[2-(3-Guanidinocarbonyl-2-methyl-6,7,8,9-tetrahydro-5H-cyclohepta[b]pyridin-9-ylmethyloxycarbonylamino)ethoxy]ethyl hydrogen sulfate] | 15.4 s | 40% | 0% | any histologic finding which could be caused by drug administration was not recognized | − (− for less than 20 ng/mL or no detection) | − (− for less than 20 ng/mL or no detection) | − (− for less than 20 ng/mL or no detection) | − (− for less than 20 ng/mL or no detection) | − (− for less than 20 ng/mL or no detection) | not detected at any time point | 313 nM |  |  | 
Cc1nc2c(cc1C(=O)NC(=N)N)CCCCC2COC(=O)NCCOCCOS(=O)(=O)[O-].[Na+] (stereo not drawn) [Inventive Compound 8, 2-[2-(3-Guanidinocarbonyl-2-methyl-6,7,8,9-tetrahydro-5H-cyclohepta[b]pyridin-9-ylmethyloxycarbonylamino)ethoxy]ethyl sulfate sodium salt] |  |  |  |  |  |  |  |  |  |  |  | only vomiting was recognized | any histologic finding which could be caused by drug administration was not recognized | 
Cc1nc2c(cc1C(=O)NC(=N)N)CCCCC2COC(=O)NCCOCCOCCOCCOCCOCCOS(=O)(=O)[O-].[Na+] (stereo not drawn) [Inventive Compound 10, 17-(3-Guanidinocarbonyl-2-methyl-6,7,8,9-tetrahydro-5H-cyclohepta[b]pyridin-9-ylmethyloxycarbonylamino)-3,6,9,12,15-pentaoxaheptadecan-1-yl sulfate sodium salt] | 11.1 s | 67% | 0% |  |  |  |  |  |  |  | 291 nM |  |  | 
Cc1nc2c(cc1C(=O)NC(=N)N)CCCCC2COC(=O)N[C@H]1CO[C@H]2[C@@H]1OC[C@H]2OS(=O)(=O)O (stereo partly drawn) [Inventive Compound 12, 2-Deoxy-1,4:3,6-dianhydro-2-(3-guanidinocarbonyl-2-methyl-6,7,8,9-tetrahydro-5H-cyclohepta[b]pyridin-9-ylmethyloxycarbonylamino)-D-glucitol-5-yl hydrogen sulfate] | 0.0 s | 0% | 0% | any histologic finding which could be caused by drug administration was not recognized | − (− for less than 20 ng/mL or no detection) | − (− for less than 20 ng/mL or no detection) | − (− for less than 20 ng/mL or no detection) | − (− for less than 20 ng/mL or no detection) | − (− for less than 20 ng/mL or no detection) | not detected at any time point | 227 nM |  |  | 
Cc1nc2c(cc1C(=O)NC(=N)N)CCCCC2COP(=O)([O-])[O-].[Na+].[Na+] (stereo not drawn) [Reference Compound 20, 3-Guanidinocarbonyl-2-methyl-6,7,8,9-tetrahydro-5H-cyclohepta[b]pyridin-9-ylmethyl phosphate disodium salt, reference compound] | 46.8 s | 80% | 40% |  | +++ (+++ when the detected plasma concentration of the control compound is 200 ng/mL or greater) | ++ (++ for more than 100 ng/mL and less than 200 ng/mL) | + (+ for more than 20 ng/mL and less than 100 ng/mL) | + (+ for more than 20 ng/mL and less than 100 ng/mL) | − (− for less than 20 ng/mL or no detection) | rapidly degraded to the Control Compound | 662 nM |  |  | 
N=C(N)NC(=O)c1cc2c(nc1COS(=O)(=O)O)CCCCC2 [Reference Compound 22, 3-Guanidinocarbonyl-6,7,8,9-tetrahydro-5H-cyclohepta[b]pyridin-2-ylmethyl hydrogen sulfate, reference compound] |  |  |  |  |  |  |  |  |  |  | > 100000 nM |  |  | significant lowering in the activity
Cc1nc2c(cc1C(=O)NC(=N)N)C(OS(=O)(=O)O)CCCC2 (stereo not drawn) [Reference Compound 23, 3-Guanidinocarbonyl-2-methyl-6,7,8,9-tetrahydro-5H-cyclohepta[b]pyridin-5-yl hydrogen sulfate, reference compound] |  |  |  |  |  |  |  |  |  |  | 37100 nM |  |  | significant lowering in the activity
